{
  "source": "paper PMC7191262",
  "about": "(Molecular pharmaceutics, 2020)",
  "origin": "cited, not measured here",
  "key": {"[1]": {"conditions": "cargo previously delivered by pHLIP"}, "[2]": {"conditions": "pHLIP with no cargo; ref [33], [36], [39]"}, "[3]": {"conditions": "ref Moshnikova et al., 2013 (Ref [17])"}},
  "note": "Read-outs that look alike come from different tables or passages of the source. *1 amine or outer side, *2 acyl side, *3 side chain or, on linkers, in order; H or OH if unused. Where a SMILES comes first, the peptide text is derived from it. Bridges are numbered along the chain shown (N, C = ends). [ ]: non-standard residue; d: D form. The star is where a group is joined. X1 = CN(C)c1ccc2c(c1)Oc1cc(N(C)C)ccc1C2=C1C=CC(=NC(=S)NC[C@](C)(O)C[C@H](N[*:1])C(=O)[*:2])C=C1C(=O)O; Trp(2-yl) = O=C([C@H](Cc1c([*:3])[nH]c2ccccc12)N[*:1])[*:2]; Dolaproine = CO[C@@H]([C@@H]1CCCN1)[C@@H](C)C(=O)O; Dil = CC[C@H](C)[C@H](NC)[C@@H](CC(=O)O)OC; cisHyp = O=C(O)[C@@H]1C[C@H](O)CN1; X2 = C[C@@H](N*)[C@@H](O)c1ccccc1; NMeV = CN[C@H](C(=O)O)C(C)C",
  "data": [
    {"compound": "Amanitin [Amanitin (Lc-SMPT linker)]", "values": [
      {"measurement": "LogP/LogD", "setting": "[1]; [3]", "value": 0.2}
    ]},
    {"compound": "GGEQNPIYWARYADWLFTTPLLLLDLALLVDADEGTC(NPys)G [pHLIP]", "values": [
      {"measurement": "characteristic time for insertion", "setting": "[2]", "value": "~ 40 seconds"}
    ]},
    {"compound": "CC[C@H](C)[C@@H]([C@@H](CC(=O)N1CCC[C@H]1[C@H](OC)[C@@H](C)C(=O)N[C@@H](Cc1ccccc1)C(=O)O)OC)N(C)C(=O)[C@@H](NC(=O)[C@@H](NC)C(C)C)C(C)C", "note": "[Monomethyl Auristatin F] (H-[NMeV]V[Dil][Dolaproine]F-OH)", "values": [
      {"measurement": "LogP/LogD", "setting": "[1]; ref Burns et al., 2017 (Ref [20])", "value": 0.7}
    ]},
    {"compound": "C[C@@H]1NC(=O)[C@H](C[C@@](C)(O)CNC(=S)N=C2C=CC(=C3c4ccc(N(C)C)cc4Oc4cc(N(C)C)ccc43)C(C(=O)O)=C2)NC(=O)[C@@H]2Cc3c([nH]c4ccccc34)SC[C@H](NC(=O)[C@@H]([C@H](C)O)NC1=O)C(=O)N1C[C@@H](O)C[C@H]1C(=O)N[C@@H](C)C(=O)N2", "note": "[Phalloidin-TRITC] (cyclo(A[dT]C[cisHyp]A[Trp(2-yl)][X1]); thioether 3-6)", "values": [
      {"measurement": "LogP/LogD", "setting": "[1]; ref Reshetnyak et al., 2006 (Ref [24])", "value": "−0.05"}
    ]},
    {"compound": "CC[C@H](C)[C@@H]([C@@H](CC(=O)N1CCC[C@H]1[C@H](OC)[C@@H](C)C(=O)N[C@H](C)[C@@H](O)c1ccccc1)OC)N(C)C(=O)[C@@H](NC(=O)[C@@H](NC)C(C)C)C(C)C", "note": "[Monomethyl Auristatin E] (H-[NMeV]V[Dil][Dolaproine]-X2)", "values": [
      {"measurement": "LogP/LogD", "setting": "[1]; ref Burns et al., 2015 (Ref [21])", "value": 2.2}
    ]},
    {"compound": "Amanitin [Amanitin (SPDP linker)]", "values": [
      {"measurement": "LogP/LogD", "setting": "[1]; [3]", "value": "−0.2"}
    ]}
  ]
}
